Here are results for 2 compounds from patent publication US20230146870A1, “METHOD TO QUANTIFY AFFINITY AND SELECTIVITY OF SMALL MOLECULES FOR PROTEINS IN LIVING CELLS” (Ohio State Innovation Foundation, priority 2021, published 2023).

A value given as a limit tells only on which side of the number the result lay.

The target in assay [1] is native (untagged) murine PKCα (Mus musculus, UniProt P20444). The experiment in a line: FPCBA competition with probe 1, native PKCα in HEK293 cells. The arrangement: For coexpression of full-length unmodified PKC proteins with mVenus as an independent marker; expressed in transfected cells; host or cells: HEK293 (transient, pIRES-mVenus). The class given is binding. Conditions: read-out: Cellular Ki for native PKCα (95% confidence interval); probe 1 400 nM, BIM1 2 μM, 2 h at 37° C.

Assay [2] has as its target T1, native (untagged) murine PKCζ (Mus musculus, UniProt Q02956).
T1 sequence (Q02956 1-592): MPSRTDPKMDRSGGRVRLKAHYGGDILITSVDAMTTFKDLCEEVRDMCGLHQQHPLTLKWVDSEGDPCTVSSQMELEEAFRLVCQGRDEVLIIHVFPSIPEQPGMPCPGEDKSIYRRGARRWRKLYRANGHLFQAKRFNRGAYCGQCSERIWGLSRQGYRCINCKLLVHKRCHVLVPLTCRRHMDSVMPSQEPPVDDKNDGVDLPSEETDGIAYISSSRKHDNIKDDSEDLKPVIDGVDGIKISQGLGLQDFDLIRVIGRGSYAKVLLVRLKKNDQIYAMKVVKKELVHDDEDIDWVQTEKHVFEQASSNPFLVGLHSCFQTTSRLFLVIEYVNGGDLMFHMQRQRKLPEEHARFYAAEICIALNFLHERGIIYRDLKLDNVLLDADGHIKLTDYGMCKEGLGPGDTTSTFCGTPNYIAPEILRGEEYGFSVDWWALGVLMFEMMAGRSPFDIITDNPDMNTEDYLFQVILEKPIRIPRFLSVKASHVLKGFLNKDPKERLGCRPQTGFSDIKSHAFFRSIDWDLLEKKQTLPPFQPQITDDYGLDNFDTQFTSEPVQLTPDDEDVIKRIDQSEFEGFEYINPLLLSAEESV
Description: FPCBA competition with probe 1, native PKCζ in HEK293 cells. The class given is binding. The arrangement: expressed in transfected cells; host or cells: HEK293 (ATCC CRL-1573), transient transfection with pIRES-mVenus carrying the PKC gene. Conditions: probe 1 400 nM, BIM1 2 μM, 2 h at 37° C.

Another assay concerns the target murine PKCα-mVenus (Mus musculus, UniProt P20444). The experiment in a line: FPCBA saturation binding of probe 1, HEK293 cells expressing PKCα-mVenus (Example 3).
Another assay relates to Jurkat cells. Description: Cellular viability assay, Jurkat lymphocytes, 48 h, flow cytometry (Example 2). The class given is cell-based. How it is done:
The impact of membrane transporters on the toxicity profile of 49 was also studied.
Jurkat lymphocytes were seeded into a 96-well plate in fresh complete medium at 2.5×10^5 cells/mL and 200 μL per well. All compounds were serial diluted in DMSO and added to complete media to achieve a 1:1000 dilution factor (0.10% DMSO in each well). […] The total cell-count for each well was determined by flow cytometry and staining with propidium iodide was used to identify populations of live cells (only dead cells are stained by PI). Counts of viable cells for each treatment, determined in triplicate, were used to generate dose-response curves. These curves were fitted with non-linear regression using an inhibitor vs. response variable slope […] model (GraphPad Prism 9) to determine IC50 values.
(In general: A flow cytometer gives signals particle by particle.)

The target of the next assay is T2, PKCβI-mVenus (Mus musculus, UniProt P68404).
T2 construct: we generated expression vectors for eight full-length mouse isozymes; expressed in transfected cells; host or cells: HEK293 (ATCC CRL-1573), transient transfection with CMV-PKC betaI-mVenus-N1
Description: Confocal microscopy of translocation of PKCβI-mVenus in HEK293 cells. The class given is cell-based. The settings on record: 2 μM, 2 h. As to the method: FIGS. 36A-36D provide confocal and DIC micrographs of living HEK293 cells transiently transfected to express PKCβI-mVenus. […] Scale bars=10 microns.
This IRES vector was derived from a previously reported^52 variant encoding the somewhat less fluorescent protein Venus.
Living cells cultured on an 8-well chamber glass slide (Ibidi μ-Slide, 300 μL, 100,000 cells/well) were imaged with an inverted Leica TCS SP8 confocal laser-scanning microscope (63× oil-immersion objective). Fluorescent probes were excited at 405 nm and mVenus was excited at 488 nm. Emitted photons were collected from 425-500 nm and 500-650 nm. For imaging, transiently transfected HEK293 cells in complete medium (10% FBS) were plated on the Ibidi μ-Slide for 16 h to promote adherence. Concentrated stock solutions of fluorescent probes in DMSO were serially diluted 500-fold in serum-free DMEM medium to afford 2× stock solutions (0.2% DMSO). Half of the cell culture medium (150 μL) was carefully removed by pipet and gently replaced with the 2× stock solution of the probe in serum-free medium (final [FBS]˜5%). Cells were treated with probes (2 μM) at 37° C. for 2 h before imaging by microscopy. Laser power and PMT gain settings were identical for all images and controls within a given experiment for accurate comparisons of cellular fluorescence.

Assay [3] concerns the target T3, native (untagged) murine PKCε (Mus musculus, UniProt P16054).
T3 sequence (P16054 1-737): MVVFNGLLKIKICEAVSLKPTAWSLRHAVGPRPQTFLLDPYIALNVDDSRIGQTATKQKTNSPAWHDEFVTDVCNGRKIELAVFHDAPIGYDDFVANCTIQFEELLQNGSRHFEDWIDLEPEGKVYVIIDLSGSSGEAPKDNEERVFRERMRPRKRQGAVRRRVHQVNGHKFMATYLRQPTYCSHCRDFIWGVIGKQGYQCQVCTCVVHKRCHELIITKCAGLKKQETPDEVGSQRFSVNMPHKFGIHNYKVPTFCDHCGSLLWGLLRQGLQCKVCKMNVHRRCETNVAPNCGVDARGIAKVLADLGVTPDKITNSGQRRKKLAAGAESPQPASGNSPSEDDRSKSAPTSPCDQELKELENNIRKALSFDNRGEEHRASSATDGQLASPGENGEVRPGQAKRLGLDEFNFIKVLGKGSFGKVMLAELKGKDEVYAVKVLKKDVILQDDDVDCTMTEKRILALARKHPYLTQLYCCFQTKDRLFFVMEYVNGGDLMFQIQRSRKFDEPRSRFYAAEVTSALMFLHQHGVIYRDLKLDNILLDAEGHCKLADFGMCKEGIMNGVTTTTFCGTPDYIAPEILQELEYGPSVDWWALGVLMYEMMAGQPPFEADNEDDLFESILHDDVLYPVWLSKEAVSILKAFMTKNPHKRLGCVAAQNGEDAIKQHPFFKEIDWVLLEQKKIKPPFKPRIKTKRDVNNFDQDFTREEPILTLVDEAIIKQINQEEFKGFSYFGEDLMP
The experiment in a line: FPCBA saturation binding of probe 1, native PKCε (IRES-mVenus) in HEK293 cells.

T2 sequence (P68404 whole entry): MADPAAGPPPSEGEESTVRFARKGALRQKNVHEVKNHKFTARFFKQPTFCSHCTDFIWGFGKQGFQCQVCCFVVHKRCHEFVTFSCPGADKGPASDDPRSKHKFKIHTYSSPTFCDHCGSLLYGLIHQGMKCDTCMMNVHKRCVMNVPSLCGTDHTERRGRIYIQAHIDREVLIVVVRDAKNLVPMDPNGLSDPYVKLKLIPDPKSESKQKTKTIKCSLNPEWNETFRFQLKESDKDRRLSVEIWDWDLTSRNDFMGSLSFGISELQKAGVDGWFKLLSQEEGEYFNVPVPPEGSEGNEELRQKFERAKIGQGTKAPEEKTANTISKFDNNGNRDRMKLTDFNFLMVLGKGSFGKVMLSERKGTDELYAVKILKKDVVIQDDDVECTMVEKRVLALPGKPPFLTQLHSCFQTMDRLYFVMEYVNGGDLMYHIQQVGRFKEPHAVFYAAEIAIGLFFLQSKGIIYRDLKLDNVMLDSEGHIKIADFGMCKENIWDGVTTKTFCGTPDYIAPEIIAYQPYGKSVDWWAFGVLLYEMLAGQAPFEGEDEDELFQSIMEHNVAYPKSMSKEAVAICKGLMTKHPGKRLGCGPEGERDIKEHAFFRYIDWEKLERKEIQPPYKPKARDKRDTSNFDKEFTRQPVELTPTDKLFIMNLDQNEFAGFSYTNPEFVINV

As usually defined, the Ki is the dissociation constant of the complex between target and ligand, obtained from inhibition or displacement. For the compound `CCC/C=C/C=C/C(=O)O[C@H]1/C(=C/C(=O)OC)C[C@H]2C[C@H]([C@@H](C)O)OC(=O)C[C@H](O)C[C@@H]3C[C@H](OC(C)=O)C(C)(C)[C@](O)(C[C@@H]4C/C(=C/C(=O)OC)C[C@H](/C=C/C(C)(C)[C@]1(O)O2)O4)O3` [bryostatin 1], the inhibition constant Ki in assay [1] worked out at 3 nM. The “Cellular Ki for native PKCζ” value in assay [2] is recorded as “No binding”.
A word on the Kd: it is a measure of binding affinity in units of concentration. Low values mean a tighter complex, high ones a looser complex. For orientation: IC50 means the concentration needed to halve the response being measured. In the case of `CCCCCCN(CCCCCCCCCCCCNC(=O)c1cc2cc(F)c(O)c(F)c2oc1=O)C(=O)O[C@@]12[C@H](O)[C@@H](C)[C@@]3(O)[C@@H](C=C(CO)C[C@]4(O)C(=O)C(C)=C[C@@H]34)[C@@H]1C2(C)C` [probe 1, (1aR,1bS,4aR,7aS,7bS,8R,9R,9aS)-4a,7b,9-trihydroxy-3-(hydroxymethyl)-1,1,6,8-tetramethyl-5-oxo-1,1a,1b,4,4a,5,7a,7b,8,9-decahydro-9aH-cyclopropa[3,4]benzo[1,2-e]azulen-9a-yl (12-(6,8-difluoro-7-hydroxy-2-oxo-2H-chromene-3-carboxamido)dodecyl)(hexyl)carbamate], the Kd was 314 ± 37 nM on murine PKCα-mVenus and 568 ± 141 nM in assay [3]. Further, the “activity relative to 33” value in the assay with Jurkat cells is on record as more than 20 fold. For the same compound, the IC50 in the assay with Jurkat cells (Homo sapiens, Jurkat, read-out: toxicity towards Jurkat cells, IC50) was 500 nM. In addition, the “translocation of PKCβI-mVenus” value on PKCβI-mVenus was “translocated to cellular membranes”.
